Results as given in patent US20260285850A1, “SUBSTITUTED OXAZOLIDINONES AND IMIDAZOLINONES AS HERBICIDES” (FMC CORPORATION, priority 2023, published 2026).

Experiments:
Assay type in all cases: in vivo
[1] = system: barnyardgrass (Echinochloa crus-galli); experiment: Test A preemergence soil spray, visual injury rating 0-100; settings: 10 days
In short: (§1)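 Visual injury, scored 0-100 (100 = complete control) against untreated plants, 10 days after greenhouse treatment. Test chemicals in surfactant-containing non-phytotoxic solvent were applied in loam soil and sand, as a preemergence soil spray on seeds or postemergence to plants at the one- to two-leaf stage.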

[2] = system: blackgrass (Alopecurus myosuroides); experiment: as above; settings: 10 days
In short: as §1

[3] = system: corn (Zea mays); experiment: as above; settings: 10 days
In short: as §1

[4] = system: green foxtail (Setaria viridis); experiment: as above; settings: 10 days
In short: as §1

[5] = system: kochia (Bassia scoparia); experiment: as above; settings: 10 days
In short: as §1

[6] = system: oat, wild (wild oat, Avena fatua); experiment: as above; settings: 10 days
In short: as §1

[7] = system: palmer (palmer amaranth, palmer pigweed, Amaranthus palmeri); experiment: as above; settings: 10 days
In short: as §1

[8] = system: ragweed (common ragweed, Ambrosia artemisiifolia); experiment: as above; settings: 10 days
In short: as §1

[9] = system: ryegrass, Italian (italian ryegrass, Lolium multiflorum); experiment: as above; settings: 10 days
In short: as §1

[10] = system: soybean (Glycine max); experiment: as above; settings: 10 days
In short: as §1

[11] = system: wheat (Triticum aestivum); experiment: as above; settings: 10 days
In short: as §1

[12] = system: barnyardgrass (Echinochloa crus-galli); experiment: Test A postemergence application, visual injury rating 0-100
In short: as §1

[13] = system: blackgrass (Alopecurus myosuroides); experiment: as above
In short: as §1

[14] = system: corn (Zea mays); experiment: as above
In short: as §1

[15] = system: galium (catchweed bedstraw, Galium aparine); experiment: as above
In short: as §1

[16] = system: green foxtail (Setaria viridis); experiment: as above
In short: as §1

[17] = system: horseweed (Erigeron canadensis); experiment: as above
In short: as §1

[18] = system: kochia (Bassia scoparia); experiment: as above
In short: as §1

[19] = system: oat, wild (wild oat, Avena fatua); experiment: as above
In short: as §1

[20] = system: palmer (palmer amaranth, palmer pigweed, Amaranthus palmeri); experiment: as above
In short: as §1

[21] = system: ragweed (common ragweed, Ambrosia artemisiifolia); experiment: as above
In short: as §1

[22] = system: ryegrass, Italian (italian ryegrass, Lolium multiflorum); experiment: as above
In short: as §1

[23] = system: soybean (Glycine max); experiment: as above
In short: as §1

[24] = system: wheat (Triticum aestivum); experiment: as above
In short: as §1

[25] = system: barnyardgrass (Echinochloa crusgalli); experiment: Test B flooded paddy test, visual plant response rating 0-100; settings: 250 g ai/ha, Flood, applied to paddy water, evaluated after 13 days
In short: (§2)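 2-leaf plants; flood 3 cm over soil; compound dosed into paddy water; depth kept constant; greenhouse 13 d; visual scoring vs controls. Dash = no result.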

[26] = system: ducksalad (Heteranthera limosa); experiment: as above; settings: 250 g ai/ha, Flood, applied to paddy water, evaluated after 13 days
In short: as §2

[27] = system: rice (Oryza sativa); experiment: as above; settings: 250 g ai/ha, Flood, applied to paddy water, evaluated after 13 days
In short: as §2

[28] = system: sedge, umbrella (small-flower umbrella sedge, Cyperus difformis); experiment: as above; settings: 250 g ai/ha, Flood, applied to paddy water, evaluated after 13 days
In short: as §2

[29] = 62 g ai/ha, 0 = no effect, 100 = complete control
[30] = 62 g ai/ha, postemergence, 10 days, 0 = no effect, 100 = complete control
[31] = Postemergence, 16 g ai/ha, greenhouse 10 days, 0 no effect, 100 complete control

CC1(C(=O)NC2C=CC(C(=O)O)C2)CN(c2cc(Cl)c(F)c(Cl)c2)C(=O)O1 (stereo not shown) [Compound 124]
Barnyardgrass plant response rating ([1]; 16 g ai/ha, 0 to 100 scale): 0
Barnyardgrass plant response rating (0-100) [1, 29]: 40
Blackgrass plant response rating ([2]; 16 g ai/ha, 0 to 100 scale): 20
Blackgrass plant response rating (0-100) [2, 29]: 30
Corn plant response rating ([3]; 16 g ai/ha, 0 to 100 scale): 0
Corn plant response rating (0-100) [3, 29]: 50
Foxtail, Green plant response rating ([4]; 16 g ai/ha, 0 to 100 scale): 0
Foxtail, Green plant response rating (0-100) [4, 29]: 80
Kochia plant response rating ([5]; 16 g ai/ha, 0 to 100 scale): 0
Kochia plant response rating (0-100) [5, 29]: 10
Oat, Wild plant response rating ([6]; 16 g ai/ha, 0 to 100 scale): 0
Oat, Wild plant response rating (0-100) [6, 29]: 30
Pigweed, Palmer plant response rating ([7]; 16 g ai/ha, 0 to 100 scale): 0
Pigweed, Palmer plant response rating (0-100) [7, 29]: 30
Ragweed plant response rating ([8]; 16 g ai/ha, 0 to 100 scale): 0
Ragweed plant response rating (0-100) [8, 29]: 0
Ryegrass, Italian plant response rating ([9]; 16 g ai/ha, 0 to 100 scale): 0
Ryegrass, Italian plant response rating (0-100) [9, 29]: 70
Soybean plant response rating ([10]; 16 g ai/ha, 0 to 100 scale): 0
Soybean plant response rating (0-100) [10, 29]: 0
Wheat plant response rating ([11]; 16 g ai/ha, 0 to 100 scale): 20
Wheat plant response rating (0-100) [11, 29]: 90
Barnyardgrass plant response rating (0-100) [12, 30]: 90
Barnyardgrass plant response rating (0 to 100 scale) [12, 31]: 70
Blackgrass plant response rating (0-100) [13, 30]: 90
Blackgrass plant response rating (0 to 100 scale) [13, 31]: 80
Corn plant response rating (0-100) [14, 30]: 100
Corn plant response rating (0 to 100 scale) [14, 31]: 60
Galium plant response rating (0-100) [15, 30]: 90
Galium plant response rating (0 to 100 scale) [15, 31]: 70
Foxtail, Green plant response rating (0-100) [16, 30]: 80
Foxtail, Green plant response rating (0 to 100 scale) [16, 31]: 10
Horseweed plant response rating (0-100) [17, 30]: 60
Horseweed plant response rating (0 to 100 scale) [17, 31]: 0
Kochia plant response rating (0-100) [18, 30]: 90
Kochia plant response rating (0 to 100 scale) [18, 31]: 30
Oat, Wild plant response rating (0-100) [19, 30]: 90
Oat, Wild plant response rating (0 to 100 scale) [19, 31]: 30
Pigweed, Palmer plant response rating (0-100) [20, 30]: 70
Pigweed, Palmer plant response rating (0 to 100 scale) [20, 31]: 50
Ragweed plant response rating (0-100) [21, 30]: 20
Ragweed plant response rating (0 to 100 scale) [21, 31]: 0
Ryegrass, Italian plant response rating (0-100) [22, 30]: 90
Ryegrass, Italian plant response rating (0 to 100 scale) [22, 31]: 30
Soybean plant response rating (0-100) [23, 30]: 70
Soybean plant response rating (0 to 100 scale) [23, 31]: 40
Wheat plant response rating (0-100) [24, 30]: 90
Wheat plant response rating (0 to 100 scale) [24, 31]: 80
Plant response rating, Barnyardgrass (0 to 100 scale, 0 is no effect and 100 is complete control) [25]: 10
Plant response rating, Ducksalad (0 to 100 scale, 0 is no effect and 100 is complete control) [26]: 85
Plant response rating, Rice (0 to 100 scale, 0 is no effect and 100 is complete control) [27]: 15
Plant response rating, Sedge, Umbrella (0 to 100 scale, 0 is no effect and 100 is complete control) [28]: 30
